Assays:
Type in all cases: functional, cell-based
[1] = molecular target: T1, ATP-dependent translocase ABCB1 (Rattus norvegicus, UniProt P43245); assay: TP_TRANSPORTER: increase in Doxorubicin intracellular accumulation (Doxorubicin: 17.2 uM, Azelastine: 10 uM) in C6 1V cells
[2] = molecular target: Multidrug resistance protein 1a (Rattus norvegicus) (UniProt Q6PSM0); assay: TP_TRANSPORTER: increase in Doxorubicin intracellular accumulation (Doxorubicin: 17.2 uM, Azelastine: 30 uM) in C6 0.5 cells
[3] = molecular target: T1, ATP-dependent translocase ABCB1; assay: TP_TRANSPORTER: increase in Doxorubicin intracellular accumulation (Doxorubicin: 17.2 uM, Flezelastine: 3 uM) in C6 1V cells
[4] = molecular target: Multidrug resistance protein 1a (Rattus norvegicus) (UniProt Q6PSM0); assay: TP_TRANSPORTER: increase in Doxorubicin intracellular accumulation (Doxorubicin: 17.2 uM, Flezelastine: 10 uM) in C6 0.5 cells

Sequence of Multidrug resistance protein 1a (Rattus norvegicus) (Q6PSM0 as listed by the source): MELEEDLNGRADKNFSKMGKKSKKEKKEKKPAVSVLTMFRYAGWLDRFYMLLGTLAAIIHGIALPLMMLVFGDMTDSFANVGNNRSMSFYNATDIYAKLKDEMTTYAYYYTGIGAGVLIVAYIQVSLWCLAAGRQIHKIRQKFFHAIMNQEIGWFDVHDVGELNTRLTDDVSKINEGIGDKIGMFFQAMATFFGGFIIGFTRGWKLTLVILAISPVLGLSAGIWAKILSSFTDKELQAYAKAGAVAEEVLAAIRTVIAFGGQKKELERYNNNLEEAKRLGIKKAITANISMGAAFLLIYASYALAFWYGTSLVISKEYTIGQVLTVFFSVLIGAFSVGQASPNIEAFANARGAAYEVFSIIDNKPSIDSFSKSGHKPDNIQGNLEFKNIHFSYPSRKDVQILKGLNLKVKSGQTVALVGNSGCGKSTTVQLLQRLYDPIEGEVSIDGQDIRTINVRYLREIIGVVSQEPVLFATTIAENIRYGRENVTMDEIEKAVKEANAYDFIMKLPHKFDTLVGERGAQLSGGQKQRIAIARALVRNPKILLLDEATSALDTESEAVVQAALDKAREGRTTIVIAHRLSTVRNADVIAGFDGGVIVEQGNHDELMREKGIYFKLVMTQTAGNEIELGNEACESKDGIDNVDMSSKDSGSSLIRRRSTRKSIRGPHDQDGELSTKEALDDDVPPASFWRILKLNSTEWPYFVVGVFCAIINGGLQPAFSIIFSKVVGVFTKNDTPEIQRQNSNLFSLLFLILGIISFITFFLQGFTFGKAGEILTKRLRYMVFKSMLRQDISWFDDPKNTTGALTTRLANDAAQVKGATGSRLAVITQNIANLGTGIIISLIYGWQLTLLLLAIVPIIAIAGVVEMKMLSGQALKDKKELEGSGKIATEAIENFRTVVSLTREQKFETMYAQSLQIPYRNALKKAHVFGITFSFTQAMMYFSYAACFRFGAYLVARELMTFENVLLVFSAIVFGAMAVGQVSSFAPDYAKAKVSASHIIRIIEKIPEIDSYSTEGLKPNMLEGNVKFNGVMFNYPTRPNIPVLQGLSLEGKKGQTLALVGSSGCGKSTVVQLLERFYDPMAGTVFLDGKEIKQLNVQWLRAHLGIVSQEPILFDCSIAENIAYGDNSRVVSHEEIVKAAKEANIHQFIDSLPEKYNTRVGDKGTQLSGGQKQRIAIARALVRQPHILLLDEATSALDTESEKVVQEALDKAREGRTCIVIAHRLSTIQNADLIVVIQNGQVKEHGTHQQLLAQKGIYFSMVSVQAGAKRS
T1 sequence (P43245 whole entry): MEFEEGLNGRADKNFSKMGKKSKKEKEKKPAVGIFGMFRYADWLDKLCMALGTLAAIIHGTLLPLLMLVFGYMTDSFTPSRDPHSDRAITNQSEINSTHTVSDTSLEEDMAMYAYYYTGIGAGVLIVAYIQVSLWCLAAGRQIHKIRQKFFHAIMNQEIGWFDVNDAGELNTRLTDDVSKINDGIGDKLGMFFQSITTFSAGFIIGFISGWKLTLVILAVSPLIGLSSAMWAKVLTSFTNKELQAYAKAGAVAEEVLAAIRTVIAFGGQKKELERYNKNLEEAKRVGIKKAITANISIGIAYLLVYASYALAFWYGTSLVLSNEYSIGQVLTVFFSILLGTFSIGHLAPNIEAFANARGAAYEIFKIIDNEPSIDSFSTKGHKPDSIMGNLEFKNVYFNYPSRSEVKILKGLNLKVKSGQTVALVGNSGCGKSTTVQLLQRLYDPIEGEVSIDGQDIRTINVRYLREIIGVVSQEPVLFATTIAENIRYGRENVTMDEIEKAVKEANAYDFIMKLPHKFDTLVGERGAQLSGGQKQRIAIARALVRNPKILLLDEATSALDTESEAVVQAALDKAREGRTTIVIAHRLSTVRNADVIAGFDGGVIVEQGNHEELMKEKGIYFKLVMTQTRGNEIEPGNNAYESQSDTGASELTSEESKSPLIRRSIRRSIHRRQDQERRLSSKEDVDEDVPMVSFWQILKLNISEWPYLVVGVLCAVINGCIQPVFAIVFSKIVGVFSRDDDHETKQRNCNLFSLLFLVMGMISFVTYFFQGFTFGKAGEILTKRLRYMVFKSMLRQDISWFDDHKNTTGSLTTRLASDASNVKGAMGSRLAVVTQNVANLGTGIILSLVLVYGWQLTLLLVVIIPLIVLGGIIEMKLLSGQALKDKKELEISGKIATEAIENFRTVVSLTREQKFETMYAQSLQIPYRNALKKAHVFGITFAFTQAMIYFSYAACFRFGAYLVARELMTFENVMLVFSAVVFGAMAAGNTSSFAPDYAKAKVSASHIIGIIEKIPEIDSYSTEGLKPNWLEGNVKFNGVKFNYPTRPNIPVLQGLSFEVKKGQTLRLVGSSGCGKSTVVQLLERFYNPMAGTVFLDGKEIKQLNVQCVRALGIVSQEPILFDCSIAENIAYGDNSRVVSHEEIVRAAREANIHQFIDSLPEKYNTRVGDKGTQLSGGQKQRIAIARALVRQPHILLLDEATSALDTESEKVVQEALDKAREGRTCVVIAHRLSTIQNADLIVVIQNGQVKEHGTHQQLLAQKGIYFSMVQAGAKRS

Structure (SMILES) | Activity [1] | Activity [2] | Activity [3] | Activity [4]
CN1CCCC(n2nc(Cc3ccc(Cl)cc3)c3ccccc3c2=O)CC1 (centres undefined) [AZELASTINE] | inhibitor [+] | inhibitor [+] | – | –
O=c1c2ccccc2c(Cc2ccc(F)cc2)nn1C1CCCN(CCc2ccccc2)CC1 (centres undefined) [FLEZELASTINE] | – | – | inhibitor [+] | inhibitor [+]

Source: ChEMBL document CHEMBL2073885, “Azelastine and flezelastine as reversing agents of multidrug resistance: pharmacological and molecular studies” (Biochem Pharmacol, 1995)
